The target of assay [1] is T1, Tyrosinase (Agaricus bisporus, UniProt O42713).
T1 sequence (O42713 whole entry): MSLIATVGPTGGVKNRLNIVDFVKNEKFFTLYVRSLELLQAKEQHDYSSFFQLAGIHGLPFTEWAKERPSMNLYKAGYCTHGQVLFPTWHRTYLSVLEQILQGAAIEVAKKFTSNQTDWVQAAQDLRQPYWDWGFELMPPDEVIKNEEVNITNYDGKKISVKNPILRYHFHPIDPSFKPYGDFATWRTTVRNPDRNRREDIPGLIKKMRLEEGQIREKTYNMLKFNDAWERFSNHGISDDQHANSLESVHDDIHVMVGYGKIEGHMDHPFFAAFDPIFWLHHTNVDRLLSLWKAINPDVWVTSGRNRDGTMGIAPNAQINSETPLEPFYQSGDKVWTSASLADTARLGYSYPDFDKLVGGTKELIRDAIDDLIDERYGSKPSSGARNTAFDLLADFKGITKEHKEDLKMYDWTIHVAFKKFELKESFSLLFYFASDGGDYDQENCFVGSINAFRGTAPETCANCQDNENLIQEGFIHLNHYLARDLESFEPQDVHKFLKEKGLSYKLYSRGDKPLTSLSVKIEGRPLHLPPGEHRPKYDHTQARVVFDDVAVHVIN
The assay can be described thus: Inhibition of mushroom tyrosinase using L-DOPA as substrate preincubated for 10 mins followed by substrate addition and measured after 1 mins by spectrophotometric analysis.

The test system of assay [2] is Mycobacterium tuberculosis. The assay can be described thus: Antimicrobial activity against Mycobacterium tuberculosis assessed as reduction in bacterial growth by Alamar Blue fluorescence assay. The class given is functional, organism-based. (In general: The colour change of resazurin is a common sign of viable cells or microbes.)
The nature of assay [3]: Binding affinity to Helicobacter pylori HTRA by SPR analysis. A general note: In SPR one partner is held on a chip, and binding of the other changes the refractive index at the surface.
Assay [4] in a line: Selectivity index, ratio of IC50 for inhibition of electric eel AChE to IC50 for inhibition of equine serum BuChE.
Another assay concerns the target Acetylcholinesterase (Electrophorus electricus, UniProt O42275). The assay can be described thus: Inhibition of electric eel AChE using acetylthiocholine iodide as substrate preincubated for 5 mins followed by substrate addition by spectrophotometric Ellman's method. A general note: DTNB colorimetry detects thiols as they appear.
A short description of assay [5]: Inhibition of equine serum BuChE using butyrylthiocholine iodide as substrate preincubated for 5 mins followed by substrate addition by spectrophotometric Ellman's method.
The target of assay [6] is Serine/threonine-protein kinase AKT (Homo sapiens, UniProt P31751+Q9Y243+P31749). The assay can be described thus: Inhibition of AKT (unknown origin). The class given is protein assay.
For assay [7], the target named is T2, Amine oxidase [flavin-containing] B (Homo sapiens, UniProt P27338).
T2 sequence (P27338 whole entry): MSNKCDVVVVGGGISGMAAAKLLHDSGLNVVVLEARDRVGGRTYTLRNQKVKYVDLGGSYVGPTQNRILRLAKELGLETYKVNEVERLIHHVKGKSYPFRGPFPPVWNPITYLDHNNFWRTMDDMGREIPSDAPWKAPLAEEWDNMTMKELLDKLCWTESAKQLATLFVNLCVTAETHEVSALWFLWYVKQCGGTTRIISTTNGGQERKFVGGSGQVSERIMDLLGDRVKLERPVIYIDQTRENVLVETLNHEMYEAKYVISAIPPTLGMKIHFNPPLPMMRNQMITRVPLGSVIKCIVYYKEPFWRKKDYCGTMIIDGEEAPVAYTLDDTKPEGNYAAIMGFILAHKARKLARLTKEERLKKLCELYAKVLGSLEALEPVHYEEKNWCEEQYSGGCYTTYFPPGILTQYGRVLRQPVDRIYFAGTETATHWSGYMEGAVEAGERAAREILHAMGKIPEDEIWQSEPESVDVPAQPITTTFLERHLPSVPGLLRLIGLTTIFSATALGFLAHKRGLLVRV
The assay can be described thus: Inhibition of recombinant human MAO-B using p-tyramine as substrate by Amplex-Red MAO assay.

The target of assay [8] is T3, Amine oxidase [flavin-containing] A (Homo sapiens, UniProt P21397).
T3 sequence (P21397 whole entry): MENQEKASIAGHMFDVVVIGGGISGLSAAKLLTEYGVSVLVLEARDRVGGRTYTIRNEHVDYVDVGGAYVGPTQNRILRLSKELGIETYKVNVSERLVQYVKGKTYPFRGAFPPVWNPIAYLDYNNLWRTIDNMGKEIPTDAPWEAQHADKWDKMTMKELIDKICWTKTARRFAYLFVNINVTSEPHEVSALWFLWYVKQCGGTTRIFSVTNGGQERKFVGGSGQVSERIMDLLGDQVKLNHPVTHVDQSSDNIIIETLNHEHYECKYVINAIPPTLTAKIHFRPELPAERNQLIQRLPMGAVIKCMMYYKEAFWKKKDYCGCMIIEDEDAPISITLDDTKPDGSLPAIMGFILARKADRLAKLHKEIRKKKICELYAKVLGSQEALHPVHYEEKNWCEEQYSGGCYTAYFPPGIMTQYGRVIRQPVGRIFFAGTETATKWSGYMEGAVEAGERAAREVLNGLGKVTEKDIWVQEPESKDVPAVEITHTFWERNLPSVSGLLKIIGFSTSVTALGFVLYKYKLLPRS
The assay can be described thus: Inhibition of recombinant human MAO-A using p-tyramine as substrate by Amplex-Red MAO assay.

Assay [9] deals with Retinoic acid receptor alpha (Homo sapiens, UniProt P10276). Nature of the assay: Antagonist activity at Gal4-RARalpha transfected in HEK293 cells assessed as atRA-induced RARalpha transactivation and measured after 6 hrs by Dual-Light chemiluminiscence assay. The class given is cell-based.
In assay [10] the target is T1, Tyrosinase. Nature of the assay: Inhibition of mushroom tyrosinase using L-tyrosine as substrate incubated for 30 mins by spectrophotometric analysis.
Another assay concerns Rhizopus arrhizus. The assay can be described thus: Antifungal activity against Rhizopus oryzae assessed as reduction in fungal growth incubated for 24 hrs by disk diffusion assay. It is filed as functional.
The next assay deals with Aspergillus flavus. Nature of the assay: Antifungal activity against Aspergillus flavus assessed as reduction in fungal growth incubated for 24 hrs by disk diffusion assay. It is filed as functional.
A further assay deals with Mucor mucedo. Nature of the assay: Antifungal activity against Mucor mucedo assessed as reduction in fungal growth incubated for 24 hrs by disk diffusion assay. It is filed as functional.
For the next assay, the system named is Aspergillus niger. Nature of the assay: Antifungal activity against Aspergillus niger assessed as reduction in fungal growth incubated for 24 hrs by disk diffusion assay. It is filed as functional.
In a further assay the test system is SH-SY5Y. Nature of the assay: Cytotoxicity against human SH-SY5Y cells assessed as reduction in cell viability. The class given is functional, cell-based.
The next assay relates to NB-4. Nature of the assay: Cytotoxicity against human NB-4 cells assessed as reduction in cell viability. It is filed as functional, cell-based.
The target of assay [11] is T2, Amine oxidase [flavin-containing] B. The assay can be described thus: Inhibition of recombinant human MAO-B.
In assay [12] the target is T3, Amine oxidase [flavin-containing] A. The assay can be described thus: Inhibition of recombinant human MAO-A.
The species named for the next assay is Homo sapiens. The assay can be described thus: Selectivity index, ratio of IC50 for inhibition of recombinant human MAO-A to IC50 for inhibition of recombinant human MAO-B.

Converted amounts (≈) assume the structure as drawn. A value given as a limit tells only on which side of the number the result lay.

Chain of Acetylcholinesterase (O42275 whole entry): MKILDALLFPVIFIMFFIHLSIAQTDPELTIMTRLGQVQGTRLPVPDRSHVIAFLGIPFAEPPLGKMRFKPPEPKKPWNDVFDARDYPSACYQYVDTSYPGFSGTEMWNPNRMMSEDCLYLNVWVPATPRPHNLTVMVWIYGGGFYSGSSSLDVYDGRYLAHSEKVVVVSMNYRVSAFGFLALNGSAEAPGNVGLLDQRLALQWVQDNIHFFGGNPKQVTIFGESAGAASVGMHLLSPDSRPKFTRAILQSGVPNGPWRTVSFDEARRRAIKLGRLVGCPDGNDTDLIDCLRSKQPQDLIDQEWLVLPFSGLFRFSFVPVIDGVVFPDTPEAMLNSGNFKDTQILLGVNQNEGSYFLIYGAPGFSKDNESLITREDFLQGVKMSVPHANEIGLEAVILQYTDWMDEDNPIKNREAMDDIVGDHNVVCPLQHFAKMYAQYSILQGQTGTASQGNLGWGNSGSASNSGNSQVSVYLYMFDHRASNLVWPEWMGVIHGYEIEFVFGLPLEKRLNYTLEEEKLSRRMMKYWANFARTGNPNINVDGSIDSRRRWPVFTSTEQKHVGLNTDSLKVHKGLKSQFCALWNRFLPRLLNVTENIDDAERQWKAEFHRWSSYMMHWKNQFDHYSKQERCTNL
Chain of Retinoic acid receptor alpha (P10276 whole entry, the tested form may be a part): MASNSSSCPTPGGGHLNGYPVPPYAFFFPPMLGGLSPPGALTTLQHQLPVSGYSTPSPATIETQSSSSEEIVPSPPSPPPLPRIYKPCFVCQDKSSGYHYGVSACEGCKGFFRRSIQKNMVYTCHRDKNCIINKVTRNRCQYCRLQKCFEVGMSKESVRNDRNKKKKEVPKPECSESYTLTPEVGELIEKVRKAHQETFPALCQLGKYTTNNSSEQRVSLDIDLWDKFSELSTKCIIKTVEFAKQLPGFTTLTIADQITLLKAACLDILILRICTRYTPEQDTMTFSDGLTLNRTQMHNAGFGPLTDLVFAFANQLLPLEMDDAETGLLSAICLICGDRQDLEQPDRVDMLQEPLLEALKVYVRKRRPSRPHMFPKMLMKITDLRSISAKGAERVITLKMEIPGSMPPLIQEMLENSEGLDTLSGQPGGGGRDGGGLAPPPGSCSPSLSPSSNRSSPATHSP

As a reminder, the IC50 is the concentration that inhibits the measured activity by half. The compound `CN(C)c1ccc(/C=C2\Cc3ccccc3C2=O)c([N+](=O)[O-])c1` came in with an IC50 at Tyrosinase [1] of 8.12 µM.
Regarding `CCOc1ccc2c(c1)O/C(=C\c1cccc(OCC(=O)OC)c1)C2=O`, the IC50 in [2] worked out at 4.8 µM.
As a reminder, the Kd is the constant that tells how readily two partners part at equilibrium. Read a low Kd as higher affinity. Compound `O=C(O)c1cc(-c2ccc(/C=C3\Sc4ccccc4C3=O)o2)ccc1Cl` gave a Kd in [3] of 12 µM.
For `COc1ccc(NC(=O)Oc2cccc(/C=C3\Cc4cc(OC)c(OC)cc4C3=O)c2)cc1`, the Ratio IC50 in assay [4] was found to be 70. The IC50 is 21 µM at Acetylcholinesterase and 0.31 µM in [5].
Take `Cc1ccc(C)c2c1C/C(=C\c1ccccc1)C2=O`: the IC50 in [6] was determined as 0.207 µM.
Broadly, the Ki is a measure of affinity in units of concentration, obtained from inhibition or displacement. Regarding `O=C1/C(=C/c2c3ccccc3cc3ccccc23)Oc2ccccc21`, the Ki in [7] amounted to 0.2 µM; in assay [8], 0.11 µM.
For the compound `COCCOCOc1cc2c(cc1C13CC4CC(CC(C4)C1)C3)C(=O)/C(=C/c1ccc(C(=O)O)cc1)O2`, the IC50 in assay [9] worked out at 4.42 µM.
On Tyrosinase [10], `O=C1/C(=C/c2ccc(O)cc2O)Cc2ccc3ccccc3c21` gave an IC50 of 0.15 µM.
A word on the MIC: it is the lowest concentration found to suppress growth. `O=C1/C(=C/c2ccncc2)Cc2ccc3c(c21)CCO3`: the MIC in the assay with Rhizopus arrhizus, with Aspergillus flavus, in the assay with Mucor mucedo and in the assay with Aspergillus niger was 60 µM (≈ 15.8 µg/mL) each time.
Take `COc1ccc(/C=C2\Oc3c(ccc4c3C(=O)CC(C)(C)O4)C2=O)cc1`: the IC50 in the assay on SH-SY5Y was 3.4 µM; in the assay with NB-4, 4.8 µM.
For `COc1cc2c(cc1OC)C(=O)/C(=C/c1ccc(N(C)C)cc1)C2`, the IC50 in assay [11] stood at 58 µM; in [12] it was 0.02 µM. In addition, in the assay listed under Homo sapiens, the Ratio IC50 is > 2500.

The values are drawn from ChEMBL document CHEMBL5236572, “Bioactive Aurones, Indanones, and Other Hemiindigoid Scaffolds: Medicinal Chemistry and Photopharmacology Perspectives” (J Med Chem, 2022).
